Results as given in patent US9260417B2, “Therapeutic methods and compositions involving allosteric kinase inhibition” (AMITECH THERAPEUTIC SOLUTIONS, INC., priority 2010, dated 2016).

What was measured:
[1] = test system: MDA-MB231 human breast carcinoma cells; assay: MDA-MB231 orthotopic breast cancer xenograft; assay type: in vivo, mice
Protocol: Tumors were generated by injection of MDA-MB231 human breast carcinoma cells (1×10^6 tumor cells in 50 μl of sterile PBS) into the mammary fatpad of 6-8 week old female Nu/Nu mice. Tumors were allowed to grow and the mice were randomized into two groups with an average tumor volume of 100 mm^3. […] Tumor growth was monitored by measuring the tumor length and width with precision calipers every 2 days and calculating tumor volume using the following formula: Tumor volume=0.5*(length)*(width)^2, provided the smaller measurement was utilized as the length. […] Scale bar 20 μM. […] Cells were lysed in RIPA buffer (50 mM Tris pH 7.4, 100 mM NaCl, 0.1% SDS, 1.0% TritonX-100, 1% deoxycholate) supplemented with complete protease inhibitor mixture (Roche), 50 mM NaF, and 1 mM Na3VO4 and centrifuged at 13,000 g for 10 min at 4° C. Protein concentration was determined by BCA assay and 30 μg of protein was loaded per lane of 10% SDS-PAGE gel. Immunohistochemistry in FIG. 18A was performed according to the manufacturer's recommendations (Vector Labs), on […] sections of paraffin-embedded tumors from the orthotopic xenograft breast cancer mouse model (MDA-MB231). For phospho-S338 CRAF immunohistochemistry, antigen retrieval was performed in citrate buffer pH 6.0 at 95° C. for 20 min. […]

CDK11 = CDK11 (Homo sapiens (Human), UniProt Q9BWU1); assay: KINOMEscan competitive binding assay; conditions: 10 uM
Protocol: (§1) For the competitive binding assay, test compounds were screened at 10 μM against 70 diverse kinase targets for competitive binding using the KINOMEscan™ technology (Ambit Biosciences) (Karaman, et al. (2008) Nature biotechnology 26:127-132). 11-point Kd curves were determined for hits identified during the initial screen.

[2] = Treatment of fibrosis in patients with interstitial lung disease; assay type: in vivo, human; conditions: 50 mg/Kg/day, oral, 6 months
Protocol: This can include patients referred for presumed pulmonary fibrosis/interstitial pneumonitis (IPF, UIP, NSIP), sarcoidosis, hypersensitivity pneumonitis, cryptogenic organising pneumonia, drug-induced, or other idiopathic ILDs. The patients are evaluated after 6 months of treatment.

SN12C-RFP renal cells = assay: Orthotopic renal cell carcinoma model; assay type: in vivo, mice; conditions: 100 mg/kg, po, qd; day 26 (vehicle 132±39 mg)
Source text: (FIG. 10A) Real-time fluorescent imaging of SN12C-RFP renal cells orthotopically injected into […] of nu/nu mice. […] Drug treatments were started 7 days after orthotopic injection and tumor growth was visualized every 7 days by whole animal imaging. The images shown are of 4 mice in the vehicle and drug treated groups on day 26. Scale bar=10 mm. (FIG. 10B) At the end of the study, both the left tumor bearing kidney and right kidney were extracted and weighed.
Male Nu/Nu mice were anesthetized with an intraperitoneal injection of 50 mg/kg ketamine and […] medetomidine. A small incision was made along the left flank of the mice and the kidney was exposed. A 27-gauge insulin syringe was used for orthotopic injection of the SN12C-RFP cells. One million tumor cells in 20 μl of a 1:1 PBS:Matrigel mixture were injected into the lower pole of the kidney just below the renal subcapsule. […]
To test the effects of 6 on tumor growth after oral administration, human SN12C renal cells expressing RFP were injected into the kidney capsule of nude mice and tumors were allowed to develop for 7 days. […] Suppression of tumor growth was readily observed in those animals treated with 6 (FIG. 10A). On day 26, the kidneys were excised from these animals and the weight due to tumor was calculated by subtracting the weight of the normal kidney from the weight of the tumor-bearing kidney for each animal.

1205 Lu melanoma cells = assay: 1205 Lu melanoma subcutaneous xenograft; assay type: in vivo, mice; conditions: 50 mg/kg, bid, ip for 2 weeks
Protocol: Human 1205 Lu melanoma cells, which express BRAF V600E, were subcutaneously implanted into the flank of 6-8 week old female Nu/Nu mice. The tumor cells were trypsinized and resuspendend in 1:1 PBS:growth factor depeleted Matrigel (BD Biosciences) and […] containing 1×10^6 cells was injected into the flank. An excess of mice bearing tumors were utilized and groups of 6 animals were chosen based on the symmetry of the tumor and randomized to give each group an average of 50 mm^3 (day 10). […] The vehicle was 10% HS-15 (known as Solutol, BASF, Inc.) in 3.33% dextrose. Tumor growth was monitored by measuring the tumor length and width with precision calipers every 3 days and calculating tumor volume using the following formula: Tumor volume=0.5*(length)*(width)^2, provided the smaller measurement was utilized as the length.

p38-alpha = p38-alpha (Homo sapiens (Human), UniProt Q16539); assay: KINOMEscan competitive binding assay; conditions: 10 uM
Protocol: as §1

CSF1R = CSF1R (Homo sapiens (Human), UniProt P07333); assay: KINOMEscan competitive binding assay; conditions: 10 uM
CSF1R, sequence (P07333 20-972): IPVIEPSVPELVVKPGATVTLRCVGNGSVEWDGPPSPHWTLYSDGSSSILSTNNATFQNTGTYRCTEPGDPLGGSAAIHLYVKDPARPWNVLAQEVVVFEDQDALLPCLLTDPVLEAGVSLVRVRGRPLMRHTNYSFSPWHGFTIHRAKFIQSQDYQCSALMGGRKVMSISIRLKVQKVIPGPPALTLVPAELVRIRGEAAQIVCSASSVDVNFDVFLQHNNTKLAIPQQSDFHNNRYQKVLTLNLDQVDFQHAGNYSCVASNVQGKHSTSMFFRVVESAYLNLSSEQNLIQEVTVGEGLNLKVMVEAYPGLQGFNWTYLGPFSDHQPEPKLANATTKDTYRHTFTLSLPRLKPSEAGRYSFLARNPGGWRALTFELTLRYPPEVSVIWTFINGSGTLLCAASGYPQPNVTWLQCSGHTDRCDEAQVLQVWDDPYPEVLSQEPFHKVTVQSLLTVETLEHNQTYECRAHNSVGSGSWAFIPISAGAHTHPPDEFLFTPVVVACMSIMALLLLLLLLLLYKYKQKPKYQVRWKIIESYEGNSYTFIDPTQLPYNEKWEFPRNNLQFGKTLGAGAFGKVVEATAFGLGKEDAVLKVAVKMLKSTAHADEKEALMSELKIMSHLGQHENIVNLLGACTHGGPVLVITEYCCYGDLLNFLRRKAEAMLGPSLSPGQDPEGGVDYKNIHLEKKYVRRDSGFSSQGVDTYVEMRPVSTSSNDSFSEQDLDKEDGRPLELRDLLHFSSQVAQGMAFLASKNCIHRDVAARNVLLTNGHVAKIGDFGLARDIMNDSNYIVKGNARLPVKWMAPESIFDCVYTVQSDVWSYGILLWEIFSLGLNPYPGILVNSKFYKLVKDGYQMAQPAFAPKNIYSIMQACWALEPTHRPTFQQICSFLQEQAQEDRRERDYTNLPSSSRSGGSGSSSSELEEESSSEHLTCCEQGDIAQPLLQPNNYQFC
Protocol: as §1

p38-alpha, sequence (Q16539 whole entry): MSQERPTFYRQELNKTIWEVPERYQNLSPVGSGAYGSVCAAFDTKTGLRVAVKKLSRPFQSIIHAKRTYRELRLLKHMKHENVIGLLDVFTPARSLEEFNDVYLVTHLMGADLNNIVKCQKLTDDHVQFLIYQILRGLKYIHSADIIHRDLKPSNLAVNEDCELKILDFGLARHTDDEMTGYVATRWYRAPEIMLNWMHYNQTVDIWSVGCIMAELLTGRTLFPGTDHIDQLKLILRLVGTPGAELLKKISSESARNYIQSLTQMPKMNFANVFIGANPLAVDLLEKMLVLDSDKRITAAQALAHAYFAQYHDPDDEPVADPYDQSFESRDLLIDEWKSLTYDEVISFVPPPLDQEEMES
CDK11, sequence (Q9BWU1 whole entry): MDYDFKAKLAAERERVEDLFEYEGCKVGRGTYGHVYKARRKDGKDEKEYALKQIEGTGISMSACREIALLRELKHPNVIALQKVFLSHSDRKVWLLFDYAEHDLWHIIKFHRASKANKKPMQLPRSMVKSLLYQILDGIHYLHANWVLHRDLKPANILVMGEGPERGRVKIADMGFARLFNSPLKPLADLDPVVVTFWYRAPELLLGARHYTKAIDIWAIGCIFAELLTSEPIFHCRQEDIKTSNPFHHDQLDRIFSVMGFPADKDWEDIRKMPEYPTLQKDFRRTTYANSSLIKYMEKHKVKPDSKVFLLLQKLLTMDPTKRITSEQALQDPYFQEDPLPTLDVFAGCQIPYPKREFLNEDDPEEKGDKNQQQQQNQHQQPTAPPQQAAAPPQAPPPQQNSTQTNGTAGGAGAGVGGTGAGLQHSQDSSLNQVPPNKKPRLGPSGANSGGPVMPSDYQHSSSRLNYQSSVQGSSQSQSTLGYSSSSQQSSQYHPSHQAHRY

## CSc1nc(N)cc(Oc2ccc(-c3nnc(Nc4cccc(C(F)(F)F)c4)[nH]3)cc2)n1 [Compound 6]
[1]; 50 mg/kg, bid, ip
  breast tumor growth compared to vehicle: suppresses tumor growth
[1]; three consecutive days, tumors resected 1 h after final dose
  phosphorylation of CRAF S338 in breast tumors: clearly inhibits phosphorylation of S338
CDK11
  % Control: 32%
[2]
  outcome of fibrosis treatment versus placebo: improvement over placebo group
SN12C-RFP renal cells
  average tumor burden (tumor-bearing kidney minus normal kidney weight): 49 ± 18 mg
1205 Lu melanoma cells
  melanoma tumor growth: suppresses melanoma tumor growth in vivo
p38-alpha
  % Control: 100%
CSF1R
  % Control: 51%
